Test results taken from publication PMC3285437 (Cell, 2012).

Legend:
Kes1 (Kes1/Osh4) [1] = biological target: Kes1 (Kes1/Osh4) (Saccharomyces cerevisiae, UniProt P35844); experiment: [3H]-cholesterol saturation binding, sterol:detergent micelle assay
Kes1 (Kes1/Osh4) [2] = biological target: Kes1 (Kes1/Osh4) (Saccharomyces cerevisiae, UniProt P35844, K242E/K243E/R236E); experiment: as above

CC(C)CCC[C@@H](C)[C@H]1CC[C@H]2[C@@H]3CC=C4C[C@@H](O)CC[C@]4(C)[C@H]3CC[C@]12C [[^3H]-Cholesterol]
Kd (Kes1 (Kes1/Osh4) [1]): 500 to 800 nM
Kd (Kes1 (Kes1/Osh4) [2]): 500 to 800 nM
